Patent EP0423247B1, “COUMAMIDINE COMPOUNDS” (ABBOTT LABORATORIES, priority 1988, dated 1990)
In brackets after ≈: the same amount, converted by molar mass.

What was measured:
[1] = tested on: Actinetobacter SP CMX 669; assay: MIC, agar dilution method (Brain Heart Infusion agar); assay type: cell-based; conditions: Actinetobacter SP CMX 669, grown aerobically, BHI agar, read-out: Minimum inhibitory concentrations
Procedure: (§1) Minimum inhibitory concentration (MIC) was determined by the agar dilution method, described hereinbelow, using Brain Heart Infusion agar.
(§2) Twelve petri dishes were prepared, each containing successive aqueous 2-fold dilutions of the test compounds mixed with 10 mL of sterilized Brain Heart Infusion (BHI) agar.
(§3) The MIC was defined as the lowest concentration of test compound yielding no growth, a slight haze, or sparsely isolated colonies on the inoculum spot as compared to the growth control containing no test compound.

[2] = tested on: Enterobacter aerogenes ATCC 13048; assay: as above; assay type: cell-based; conditions: Klebsiella aerogenes, ATCC13048, Enterobacter aerogenes ATCC 13048, grown aerobically, BHI agar, read-out: Minimum inhibitory concentrations
Procedure: as §1, §2, §3

[3] = tested on: Enterobacter cloacae CMX 650A; assay: as above; assay type: cell-based; conditions: CMX650A, grown aerobically, BHI agar, read-out: Minimum inhibitory concentrations
Procedure: as §1, §2, §3

[4] = tested on: Enterococcus faecium ATCC 8043; assay: as above; assay type: cell-based; conditions: ATCC8043, Enterococcus faecium ATCC 8043, grown aerobically, BHI agar, read-out: Minimum inhibitory concentrations
Procedure: as §1, §2, §3

Escherichia coli JUHL = assay: as above; assay type: cell-based; conditions: grown aerobically, BHI agar, read-out: Minimum inhibitory concentrations
Procedure: as §1, §2, §3

Escherichia coli SS = assay: as above; assay type: cell-based; conditions: grown aerobically, BHI agar, read-out: Minimum inhibitory concentrations
Procedure: as §1, §2, §3

[5] = tested on: Klebsiella pneumoniae ATCC 8045; assay: as above; assay type: cell-based; conditions: ATCC8045, Klebsiella pneumoniae ATCC 8045, grown aerobically, BHI agar, read-out: Minimum inhibitory concentrations
Procedure: as §1, §2, §3

[6] = tested on: Proteus mirabilis CMX 704F; assay: as above; assay type: cell-based; conditions: CMX704F, grown aerobically, BHI agar, read-out: Minimum inhibitory concentrations
Procedure: as §1, §2, §3

[7] = tested on: Proteus vulgaris ABBOTT JJ; assay: as above; assay type: cell-based; conditions: grown aerobically, BHI agar, read-out: Minimum inhibitory concentrations
Procedure: as §1, §2, §3

[8] = tested on: Providencia stuartii CMX 640; assay: as above; assay type: cell-based; conditions: CMX640, Providencia stuartii CMX 640, grown aerobically, BHI agar, read-out: Minimum inhibitory concentrations
Procedure: as §1, §2, §3

[9] = tested on: Pseudomonas aeruginosa A5007; assay: as above; assay type: cell-based; conditions: Pseudomonas aeruginosa A5007, grown aerobically, BHI agar, read-out: Minimum inhibitory concentrations
Procedure: as §1, §2, §3

[10] = tested on: Pseudomonas aeruginosa ATCC 27853; assay: as above; assay type: cell-based; conditions: ATCC27853, Pseudomonas aeruginosa ATCC 27853, grown aerobically, BHI agar, read-out: Minimum inhibitory concentrations
Procedure: as §1, §2, §3

[11] = tested on: Pseudomonas aeruginosa BMH 10; assay: as above; assay type: cell-based; conditions: BMH10, Pseudomonas aeruginosa BMH 10, grown aerobically, BHI agar, read-out: Minimum inhibitory concentrations
Procedure: as §1, §2, §3

[12] = tested on: Pseudomonas aeruginosa CFS 387C; assay: as above; assay type: cell-based; conditions: CFS387C, grown aerobically, BHI agar, read-out: Minimum inhibitory concentrations
Procedure: as §1, §2, §3

[13] = tested on: Pseudomonas aeruginosa CFS 389; assay: as above; assay type: cell-based; conditions: CFS389, Pseudomonas aeruginosa CFS 389, grown aerobically, BHI agar, read-out: Minimum inhibitory concentrations
Procedure: as §1, §2, §3

[14] = tested on: Pseudomonas aeruginosa K799/WT; assay: as above; assay type: cell-based; conditions: grown aerobically, BHI agar, read-out: Minimum inhibitory concentrations
Procedure: as §1, §2, §3

Pseudomonas cepacia 296I = assay: as above; assay type: cell-based; conditions: Burkholderia cepacia, grown aerobically, BHI agar, read-out: Minimum inhibitory concentrations
Procedure: as §1, §2, §3

[15] = tested on: Serratia marcescens CMX 657E; assay: as above; assay type: cell-based; conditions: CMX657E, grown aerobically, BHI agar, read-out: Minimum inhibitory concentrations
Procedure: as §1, §2, §3

[16] = tested on: Serratia marcescens CMX 740C; assay: as above; assay type: cell-based; conditions: CMX740C, grown aerobically, BHI agar, read-out: Minimum inhibitory concentrations
Procedure: as §1, §2, §3

Staphylococcus aureus 45 = assay: as above; assay type: cell-based; conditions: Staphylococcus aureus 45, grown aerobically, BHI agar, read-out: Minimum inhibitory concentrations
Procedure: as §1, §2, §3

[17] = tested on: Staphylococcus aureus A5177; assay: as above; assay type: cell-based; conditions: Staphylococcus aureus A5177, grown aerobically, BHI agar, read-out: Minimum inhibitory concentrations
Procedure: as §1, §2, §3

[18] = tested on: Staphylococcus aureus ATCC 6538P; assay: as above; assay type: cell-based; conditions: ATCC6538P, grown aerobically, BHI agar, read-out: Minimum inhibitory concentrations
Procedure: as §1, §2, §3

[19] = tested on: Staphylococcus aureus CMX 686B; assay: as above; assay type: cell-based; conditions: CMX686B, grown aerobically, BHI agar, read-out: Minimum inhibitory concentrations
Procedure: as §1, §2, §3

[20] = tested on: Staphylococcus epidermidis 3519; assay: as above; assay type: cell-based; conditions: Staphylococcus epidermidis 3519, grown aerobically, BHI agar, read-out: Minimum inhibitory concentrations
Procedure: as §1, §2, §3

[21] = tested on: Streptococcus agalactiae CMX 508; assay: as above; assay type: cell-based; conditions: CMX508, Streptococcus agalactiae CMX 508, grown aerobically, BHI agar, read-out: Minimum inhibitory concentrations
Procedure: as §1, §2, §3

[22] = tested on: Streptococcus bovis A 5169; assay: as above; assay type: cell-based; conditions: Streptococcus equinus, A5169, Streptococcus bovis A 5169, grown aerobically, BHI agar, read-out: Minimum inhibitory concentrations
Procedure: as §1, §2, §3

[23] = tested on: Streptococcus pyogenes 930 CONST; assay: as above; assay type: cell-based; conditions: grown aerobically, BHI agar, read-out: Minimum inhibitory concentrations
Procedure: as §1, §2, §3

[24] = tested on: Streptococcus pyogenes EES 614; assay: as above; assay type: cell-based; conditions: EES614, Streptococcus pyogenes EES 614, grown aerobically, BHI agar, read-out: Minimum inhibitory concentrations
Procedure: as §1, §2, §3

[25] = Solubility (qualitative description); assay type: physicochemical
Text: High resolution, positive ion fast atom bombardment (FAB) mass spectrometry established identical molecular ions or m/z 835.3576 for the two isomers corresponding to a formula of C₃₃H₄₉N₁₃0₁₃ (calc. 835.3577). UV lambdamax=286 nm. The coumamidine gamma 1 isomer has an imidazolidone ring at the 2 and 3 position of the terminal sugar, and the coumamidine gamma 2 isomer has an oxazolidone ring at positions 3 and 4 of the terminal sugar.

[26] = tested on: Campylobacter jejuni ATTC 29428; assay: MIC, agar dilution method (Brain Heart Infusion agar); assay type: cell-based; conditions: ATTC29428, Campylobacter jejuni ATTC 29428, grown aerobically, BHI agar, read-out: Minimum inhibitory concentrations
Procedure: as §1, §2, §3

[27] = tested on: Haemophilus influenzae 503B; assay: as above; assay type: cell-based; conditions: grown aerobically, BHI agar, read-out: Minimum inhibitory concentrations
Procedure: as §1, §2, §3

[28] = tested on: Neisseria gonorrhoeae 35FAMPI; assay: as above; assay type: cell-based; conditions: grown aerobically, BHI agar, read-out: Minimum inhibitory concentrations
Procedure: as §1, §2, §3

[29] = tested on: Neisseria gonorrhoeae CMX 591; assay: as above; assay type: cell-based; conditions: CMX591, Neisseria gonorrhoeae CMX 591, grown aerobically, BHI agar, read-out: Minimum inhibitory concentrations
Procedure: as §1, §2, §3

Row | Structure (SMILES) | MIC [1] [µg/mL] | MIC [2] [µg/mL] | MIC [3] [µg/mL] | MIC [4] [µg/mL] | MIC (Escherichia coli JUHL) [µg/mL] | MIC (Escherichia coli SS) [µg/mL] | MIC [5] [µg/mL] | MIC [6] [µg/mL] | MIC [7] [µg/mL] | MIC [8] [µg/mL] | MIC [9] [µg/mL] | MIC [10] [µg/mL] | MIC [11] [µg/mL] | MIC [12] [µg/mL] | MIC [13] [µg/mL] | MIC [14] [µg/mL] | MIC (Pseudomonas cepacia 296I) [µg/mL] | MIC [15] [µg/mL] | MIC [16] [µg/mL] | MIC (Staphylococcus aureus 45) [µg/mL] | also measured
1 | CC1OC(Oc2ccc(C=CC(=O)NCCC(=N)N)cc2)C(NC(=N)N)C(O)C1NC(=O)NC1OCC(OC2OCC3OC(=O)NC3C2NC(N)=O)C(O)C1NC(N)=O (stereo not drawn) [gamma 2, coumamidine gamma 2] | 4 (≈ 4.79 µM) | 2 (≈ 2.39 µM) | 4 (≈ 4.79 µM) | 32 (≈ 38.3 µM) | 0.5 (≈ 0.598 µM) | 1 (≈ 1.2 µM) | 0.5 (≈ 0.598 µM) | 1 (≈ 1.2 µM) | 4 (≈ 4.79 µM) | 2 (≈ 2.39 µM) | 16 (≈ 19.1 µM) | 8 (≈ 9.57 µM) | 0.5 (≈ 0.598 µM) | 16 (≈ 19.1 µM) | 8 (≈ 9.57 µM) | 16 (≈ 19.1 µM) | > 32 | 2 (≈ 2.39 µM) | 2 (≈ 2.39 µM) | 1 (≈ 1.2 µM) | MIC [17]: 1 µg/mL (≈ 1.2 µM); MIC [18]: 0.5 µg/mL (≈ 0.598 µM); MIC [19]: 0.5 µg/mL (≈ 0.598 µM); MIC [20]: 1 µg/mL (≈ 1.2 µM); MIC [21]: 16 µg/mL (≈ 19.1 µM); MIC [22]: 32 µg/mL (≈ 38.3 µM); MIC [23]: 1 µg/mL (≈ 1.2 µM); MIC [24]: 1 µg/mL (≈ 1.2 µM); solubility in dimethylsulfoxide [25]: readily soluble; solubility in methanol [25]: slightly soluble; solubility in water [25]: readily soluble
2 | CC1OC(Oc2ccc(C=CC(=O)NCCC(=N)N)cc2)C(NC(=N)N)C(O)C1NC(=O)NC1OCC(OC2OCC(O)C3NC(=O)N(C(N)=O)C23)C(O)C1NC(N)=O (stereo not drawn) [gamma 1, coumamidine gamma 1] | 0.25 (≈ 0.299 µM) | 1 (≈ 1.2 µM) | 4 (≈ 4.79 µM) | 16 (≈ 19.1 µM) | 0.25 (≈ 0.299 µM) | 0.5 (≈ 0.598 µM) | 0.25 (≈ 0.299 µM) | 1 (≈ 1.2 µM) | 2 (≈ 2.39 µM) | 0.5 (≈ 0.598 µM) | 8 (≈ 9.57 µM) | 8 (≈ 9.57 µM) | 0.25 (≈ 0.299 µM) | 8 (≈ 9.57 µM) | 8 (≈ 9.57 µM) | 8 (≈ 9.57 µM) | 32 (≈ 38.3 µM) | 1 (≈ 1.2 µM) | 2 (≈ 2.39 µM) | 0.5 (≈ 0.598 µM) | MIC [26]: 0.06 µg/mL (≈ 0.0718 µM); MIC [27]: 0.03 µg/mL (≈ 0.0359 µM); MIC [28]: 0.5 µg/mL (≈ 0.598 µM); MIC [29]: 0.5 µg/mL (≈ 0.598 µM); MIC [17]: 1 µg/mL (≈ 1.2 µM); MIC [18]: 0.25 µg/mL (≈ 0.299 µM); MIC [19]: 0.25 µg/mL (≈ 0.299 µM); MIC [20]: 0.5 µg/mL (≈ 0.598 µM); MIC [21]: 8 µg/mL (≈ 9.57 µM); MIC [22]: 16 µg/mL (≈ 19.1 µM); MIC [23]: 2 µg/mL (≈ 2.39 µM); MIC [24]: 4 µg/mL (≈ 4.79 µM); solubility in dimethylsulfoxide [25]: readily soluble; solubility in methanol [25]: slightly soluble; solubility in water [25]: readily soluble
